Test results reported in PubChem BioAssay (NCI).
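Grown in 96-well plates, cells were treated for 48 hours with each compound at five concentrations. Insufficient inhibition: endpoint recorded as highest concentration tested. Here, GI50 denotes the concentration required for 50% inhibition of growth. The concentration for full growth arrest is given as TGI.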

What was measured:
Experiment in all cases: NCI-60 cell line screen, 48 h
[1] = test system: A498 renal
[2] = test system: EKVX NSCLC
[3] = test system: HL-60(TB) leukemia
[4] = test system: HOP-62 NSCLC
[5] = test system: NCI-H226 lung
[6] = test system: OVCAR-3 ovarian
[7] = test system: RPMI-8226 leukemia
[8] = test system: SF-268 CNS
[9] = test system: SN12C renal
[10] = test system: MDA-MB-435

Compound | TGI [1] [µM] | TGI [2] [µM] | TGI [3] [µM] | TGI [4] [µM] | TGI [5] [µM] | TGI [6] [µM] | TGI [7] [µM] | TGI [8] [µM] | TGI [9] [µM] | GI50 [1] [µM] | GI50 [2] [µM] | GI50 [3] [µM] | GI50 [4] [µM] | GI50 [10] [µM] | TGI [10] [µM] | GI50 [6] [µM] | GI50 [7] [µM] | GI50 [8] [µM] | GI50 [9] [µM] | GI50 [5] [µM]
CCOc1ccc(NC(=O)/C(CC(=O)c2c[n+](=O)c3ccccc3n2[O-])=N\OCCCc2ccccc2)cc1 | > 100 | > 100 | > 100 | > 100 | > 100 | > 100 | > 100 | > 100 | > 100 | – | – | – | – | – | – | – | – | – | – | –
COc1ccc(-c2ccc(CC(=O)O)cc2)cc1OC | > 100 | > 100 | > 100 | > 100 | > 100 | > 100 | > 100 | > 100 | > 100 | – | – | – | – | – | – | – | – | – | – | –
Cc1cccc(C)c1NC(=O)C(=O)Cc1nc2ccccc2s1 | > 100 | > 100 | > 100 | > 100 | > 100 | > 100 | > 100 | > 100 | > 100 | – | – | – | – | – | – | – | – | – | – | –
O=C1NC(O)n2c(=O)[nH]c(=O)n21 (configuration not stated) | – | > 100 | > 100 | > 100 | > 100 | > 100 | > 100 | > 100 | > 100 | – | – | – | – | – | – | – | – | – | – | –
Cc1cc(Cl)ccc1NC(=O)CCCC(=O)C1C/C(=N/O)CC/C1=N\O (configuration not stated) | > 100 | > 100 | > 100 | > 100 | > 100 | > 100 | > 100 | > 100 | > 100 | – | – | – | – | – | – | – | – | – | – | –
COc1cc(C)c2c(c1)CN1CN2Cc2cc(OC)cc(C)c21 | – | > 100 | 64.2 | > 100 | > 100 | 54.2 | > 100 | > 100 | > 100 | – | – | – | – | – | – | – | – | – | – | –
COC(=O)C1CC(c2ccc(OC)c(OC)c2)OC1=O (mixture of isomers) | > 100 | > 100 | > 100 | > 100 | > 100 | > 100 | > 100 | > 100 | > 100 | – | – | – | – | – | – | – | – | – | – | –
O=C(Nc1sc2c(c1C(=O)O)CCCC2)c1ccco1 | > 50 | > 50 | > 50 | > 50 | – | > 50 | > 50 | > 50 | 42 | > 50 | 36.3 | > 50 | > 50 | > 50 | > 50 | > 50 | > 50 | 25.7 | 8.63 | –
COc1cc2c(cc1OCCNC(=O)/C=C1\C[C@H]3C=Nc4cc(OCc5ccccc5)c(OC)cc4C(=O)N3C1)N=C[C@@H]1CCCN1C2=O | – | 81.6 | – | 23.6 | 60.1 | 5.49 | 2.74 | 7.03 | 15.8 | – | 36.8 | – | 4.27 | 2.97 | 9.79 | 2.19 | 1.18 | 2.18 | 2.68 | 32
COc1ccc(-c2ccc(C3CC(c4ccccc4)=NN3)o2)c([N+](=O)[O-])c1 (configuration not stated) | > 100 | > 100 | 64.8 | > 100 | – | > 100 | > 100 | > 100 | > 100 | 68.4 | 49.2 | 24.9 | 52.7 | 32.4 | > 100 | 29.8 | 31 | 37.8 | 56.4 | –
CCOC(=O)Nc1ccc2nc(-c3cscn3)[nH]c2c1 | 21 | – | > 100 | > 100 | > 100 | 23.4 | > 100 | > 100 | > 100 | 3.5 | – | 3.17 | 4.91 | 0.398 | 1.93 | 3.79 | 4.6 | 18 | 5.6 | 30.7
Cc1nnc2n1N=C(c1ccccc1)C(c1ccccc1)S2 (configuration not stated) | > 100 | > 100 | 64.5 | > 100 | – | > 100 | > 100 | > 100 | > 100 | – | – | – | – | – | – | – | – | – | – | –
C1=CC(=P(c2ccccc2)(c2ccccc2)c2ccccc2)C=C1 | – | 82.5 | 9.01 | 41.6 | – | 23.7 | 11 | 75.1 | 43.4 | – | – | – | – | – | – | – | – | – | – | –
Cc1cccc(N2C(=O)/C(=C/C(Cl)=C/c3ccc([N+](=O)[O-])cc3)SC2=S)c1C | – | > 100 | 6.94 | 9.02 | – | 3.87 | 2.04 | – | 5.05 | – | 2.73 | 1.91 | 2.69 | – | – | 1.83 | 0.439 | – | 2.03 | –
O=c1c(Cc2ccc3c(c2)OCO3)nnc2sc(-c3cc(F)c(Cl)cc3Cl)nn12 | – | – | – | 64.7 | > 100 | > 100 | > 100 | > 100 | > 100 | – | – | – | 18.1 | 52.9 | > 100 | 38 | 30.6 | 41.7 | 62.6 | 85.6
CC(C)C[C@@H](N)[C@@H](O)C(=O)N[C@H](C(=O)N[C@H](C(=O)N[C@@H](CC(=O)O)C(=O)O)C(C)C)C(C)C | > 20 | > 20 | – | > 20 | > 20 | > 20 | – | > 20 | > 20 | > 20 | > 20 | – | > 20 | > 20 | > 20 | > 20 | – | > 20 | > 20 | > 20
Cc1cc2c(c(C(=O)O)c1C)-c1cccc(Cl)c1C2=O | – | > 100 | – | > 100 | > 100 | > 100 | > 100 | > 100 | > 100 | – | – | – | – | – | – | – | – | – | – | –
COc1ccc(-c2nc3ccccc3s2)cc1OC | – | – | > 100 | > 100 | – | – | > 100 | – | > 100 | – | – | – | – | – | > 100 | – | – | – | – | –
c1cnc2c(c1)-n1cccc1C1(CCCCC1)NN2 | – | > 100 | > 100 | > 100 | > 100 | > 100 | > 100 | > 100 | > 100 | – | – | – | – | – | – | – | – | – | – | –
Cc1c(C)c([N+](=O)[O-])c2c(c1N)C(=O)c1ccccc1C2=O | > 100 | > 100 | > 100 | > 100 | > 100 | > 100 | > 100 | > 100 | > 100 | – | – | – | – | – | – | – | – | – | – | –
